Results published in patent US20120225054A1, “USE OF LEGUME EXTRACTS FOR INDUCING AND ENHANCING AUTOPHAGY AND APOPTOSIS AND FOR PREVENTING AND/OR TREATING CANCERS” (HERBAL BON BIOTECH INC., priority 2011, published 2012).

Experiments:
human HCC Hep 3B cells = experiment: Flow cytometric analysis of apoptotic cells with autophagy inhibitor, Hep 3B; format: cell-based; conditions: 10 mM 3-MA pretreatment 2 h, SC-1 265 μg/ml
Procedure: (§1) Cells (2×10^5) grown in 6-well plates were pretreated with or without 10 mM of autophagy inhibitor 3-methyladenine (3-MA; Sigma, St. Louis, Mo.) for 2 h prior to the addition of SC-1 (265 μg/ml). The cells were harvested, centrifuged at 800g for 10 min at 4° C., and resuspended in HBS containing 40 μg/ml of propidium iodide and […] RNase A for 30 min at 37° C. in the dark. Measurement of apoptotic cells was performed using a FACScan flow cytometer (Becton Dickison, Mountain View, Calif., USA).
To confirm the importance of autophagy in the proceeding of apoptosis, autophagy inhibitor 3-MA was added to the cell culture and the relative portion of apoptotic cells was analyzed by flow cytometry. […] In FIG. 5B, it inhibited the fermented soybean extracts-induced apoptosis of Hep 3B cells approximately 42% at 48 h and 60% at 72 h. Therefore, it would not be surprised that the induction of apoptosis was observed only in combination with autophagy in tumors obtained from the mice received the fermented soybean extracts for a relatively long period of time (FIGS. 4A and B).

[1] = system: murine hepatoma ML-1 cells; experiment: Flow cytometric analysis of apoptotic cells with autophagy inhibitor, ML-1; format: cell-based; conditions: 10 mM 3-MA pretreatment 2 h, SC-1 265 μg/ml
Procedure: Murine ML-1 cells obtained from Dr. Huan-Yao Lei (Department of Microbiology and Immunology, Medical College, National Cheng Kung University, Tainan, Taiwan) were cultured in complete Dulbecco's modified Eagle medium (DMEM; GIBCO BRL, Grand Island, N.Y.) containing 10% fetal bovine serum (GIBCO BRL), 2 mM glutamine (Sigma, St. Louis, Mo.), 100 U/ml penicillin (Sigma), and 100 μg/ml streptomycin (Sigma) at 37° C. in a 5% CO2 humidified atmosphere.
as §1
To confirm the importance of autophagy in the proceeding of apoptosis, autophagy inhibitor 3-MA was added to the cell culture and the relative portion of apoptotic cells was analyzed by flow cytometry. […] In FIG. 5B, it inhibited the fermented soybean extracts-induced apoptosis of Hep 3B cells approximately 42% at 48 h and 60% at 72 h. […]

In the case of Cn1cnc(N)c2ncnc1-2 [3-MA, 3-methyladenine], the “inhibition of fermented soybean extracts-induced apoptosis” value (“inhibition” below) (human HCC Hep 3B cells; 48 h) is reported as “approximately 42%”, the “inhibition” value (human HCC Hep 3B cells; 72 h) is reported as roughly 60% and the “inhibition” value ([1]; 48 h) is reported as “approximately 45%”. The “inhibition” value ([1]; 72 h) was roughly 52%.
